# Data from patent US5750782A, “Nitroaniline derivatives and their use as anti-tumour agents” (priority 1996, dated 1998).
# Where two headings read alike, the source gives them in different places.
# Columns and labels:
# [1] = product of CB 1954 reduction by Walker cell enzyme; cited from earlier work
# EC.1.6.99.2 = conditions: Walker cell enzyme; cited from earlier work
# Walker tumour cells = conditions: in vivo or in vitro; cited from earlier work
# other tumours = conditions: cited from earlier work
# [2] = system: bacterial nitroreductase enzymes; conditions: PCT/GB92/01947; cited from earlier work
# AA8 and UV4 cell lines = test: Ratio of IC50 values against AA8 and UV4 cell lines (HFair); format: cell-based; conditions: 18 h exposure
# Experimental: (§1) Growth inhibition studies were performed as described in detail elsewhere (W.R. Wilson, R.F. Anderson and W.A Denny. J Med. Chem., 1989, 32, 23; G.J. Finlay, B.C. Baguley and W.R. Wilson. Anal Biochem., 1984, 139, 172.), using 200 viable AA8 or 300 viable UV4 cells plus 5000 lethally-irradiated AA8 feeder cells per well in 96-well tissue culture dishes. AA8 and UV4 cells were maintained in logarithmic-phase growth in […] tissue culture flasks with subculture twice weekly by trypsinization. The growth medium was antibiotic-free α-MEM with 10% v/v heat-inactivated ([…], 40 min) fetal calf serum. Doubling times were approximately 14h for AA8 and 15h for UV4 cells.
# Ratio of IC50 values for a compound after exposure as detailed above against AA8 and UV4 cell lines (HF=IC50 (AA8)/IC50 (UV4)).
# V79 cells [3] = test: Survival of V79 cells in the presence of the E. coli nitroreductase: A5B7 F(ab)2 conjugate; format: cell-based; conditions: 2 h, 37° C
# Experimental: (§2) The conjugate concentration was 81 μg/ml (euivalent to 5.2 μg/ml nitroreductase) and NADII was used as a co-factor. […] No attempt was made to remove unbound conjugate.
# [4] = system: bacterial nitroreductase enzymes; test: Reductive activation by bacterial nitroreductase enzymes; format: biochemical, Escherichia coli and Bacillus amyloliquifaciens; conditions: Examples 1 to 3
# UV4 cells = test: Clonogenic assay, UV4 cells (CT10), aerobic and hypoxic; format: cell-based
# Source text: The product (in μM-hr) of the drug concentration times the exposure time to reduce cell survival to 10% of control values in the clonogenic assay.
# Ratio of CT10 values after exposure of UV4 cells as detailed above under either aerobic (air) or hypoxic (N2) conditions (=aerobic CT10 /hypoxic CT10).
# UV4 = test: Growth inhibition (IC50), UV4 cells, aerobic; format: cell-based; conditions: air, 18 h exposure
# Experimental: as §1
# V79 cells [5] = test: Survival of V79 cells in the presence of the B. amyloliquifaciens nitroreductase; format: cell-based; conditions: 2 h, 37° C
# Experimental: The effect of SN23862 on the survival of V79 cells in the preence of the B. amyloliquifaciens nitroreductase. All treatments were for 2 hours at 37° C. and the cells were then plated out for their resulting colony forming ability. […] The initial cell density was 2×10^5 /mL.
# [6] = target: T1, E. coli nitroreductase: A5B7 F(ab)2 conjugate (Escherichia coli, UniProt P38489); test: Drug reduction by the E. coli nitroreductase: A5B7 F(ab)2 conjugate; format: biochemical; conditions: 120 min
# T1 construct: A5B7 F(ab)2 antibody fragment (conjugate)
# T1 sequence (P38489 1-217): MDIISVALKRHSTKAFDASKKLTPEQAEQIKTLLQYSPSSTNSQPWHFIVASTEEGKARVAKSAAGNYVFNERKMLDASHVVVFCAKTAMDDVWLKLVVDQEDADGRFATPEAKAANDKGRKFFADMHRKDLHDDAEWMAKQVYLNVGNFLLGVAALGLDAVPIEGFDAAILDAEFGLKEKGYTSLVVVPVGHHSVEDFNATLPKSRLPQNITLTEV
# Experimental: as §2
# AA8 cells = test: Radiosensitisation of hypoxic AA8 cells, gamma irradiation; format: cell-based
# Experimental: The radiosensitising efficiency of compound 1 has been assessed in stirred suspensions of AA8 cells under hypoxie conditions using gamma irradiation (cobalt 60) at a dose rate of 2.2 Gy/min at 37° C. Drug and cells were mixed under hypoxic conditions 30 min before irradiation.
# MAWI Cells = test: Survival of Mawi cells in the presence of the E. coli nitroreductase: A5B7 F(ab)2 conjugate; format: cell-based; conditions: 2 h, 37° C
# Experimental: as §2
# E. coli nitroreductase = target: T2, E. coli nitroreductase (Escherichia coli, UniProt P38489); test: Drug reduction by the E. coli nitroreductase; format: biochemical; conditions: 120 min
# T2 sequence (P38489 1-217): T1 sequence (P38489 1-217)
# AA8 = test: Growth inhibition (IC50), AA8 cells, aerobic; format: cell-based; conditions: air, 18 h exposure
# Experimental: as §1
# [7] = target: T3, B. amyloliquifaciens nitroreductase (Bacillus amyloliquefaciens, UniProt Q8VSR5); test: Drug reduction by the B. amyloliquifaciens nitroreductase; format: biochemical; conditions: 120 min
# T3 sequence (Q8VSR5 1-174): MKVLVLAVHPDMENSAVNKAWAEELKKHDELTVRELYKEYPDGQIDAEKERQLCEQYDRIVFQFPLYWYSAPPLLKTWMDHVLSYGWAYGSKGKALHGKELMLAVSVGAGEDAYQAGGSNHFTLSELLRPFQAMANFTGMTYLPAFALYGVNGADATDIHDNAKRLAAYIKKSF
# Experimental: The nitroreductase concentration was 7.45 μg/ml and NADII was ised as a co-factor.
# V79 cells [8] = conditions: 2 h, 37° C
# Experimental: (§3) The nitroreductase concentration was 2 μg/ml and NADH was used as a co-factor. The initial cell density was 2×10^5 /mL.
# UV4 cell line = test: Ratio of IC50 values against UV4 cell line in presence and absence of E. coli nitroreductase enzyme NTR-2; format: cell-based; conditions: air, ratio of IC50 in presence and absence of E. coli nitroreductase NTR-2, 1080 min
# Experimental: as §1
# Ratio of IC50 values for a compound after exposure as detailed above against the UV4 cell line in the presence and absence of the E. coli nitroreductase enzyme NTR-2.
# V79 cells [9] = test: Survival of V79 cells in the presence of the E. coli nitroreductase; conditions: hamster, 2 h
# Experimental: as §3
# [10] = +CG (81 μg/ml) + SN23862 + 500 μM NADH
smiles,measurement,setting,value
NC(=O)c1cc(N2CC2)c(NO)cc1[N+](=O)[O-] [5-(aziridin-1-yl)-2-nitro-4-hydroxylamino-benzamide],anti-tumour activity,[1],active anti-tumour agent
"NC(=O)c1cc(N2CC2)c([N+](=O)[O-])cc1[N+](=O)[O-] [CB 1954, 5-(aziridin-1-yl)-2,4-dinitrobenzaride]",reduction of the 4-nitro group to the corresponding hydroxylamine,EC.1.6.99.2,ability to reduce the 4-nitro group of CB 1954
same,activity against the Walker tumour cells,Walker tumour cells,considerable activity
same,activity against other tumours,other tumours,virtually inactive
same,conversion into an active anti-tumour agent by bacterial nitroreductases,[2],capable of converting CB 1954 into an active anti-tumour agents
"NC(=O)c1cc(N(CCCl)CCCl)c([N+](=O)[O-])cc1[N+](=O)[O-] [Compound 1, 5-[N,N-bis(2-chloroethyl)amino]-2,4-diritrobenzamide]",HF (air) = IC50 (AA8)/IC50 (UV4),AA8 and UV4 cell lines,6.8
same,% SURVIVAL V79 Cells,V79 cells [3]; +50 μM SN23862,94.3%
same,% SURVIVAL V79 Cells,V79 cells [3]; +CG (81 μg/ml) + 50 μM SN23862,73.5%
same,% SURVIVAL V79 Cells,V79 cells [3]; [10],0.003%
same,% SURVIVAL V79 Cells,V79 cells [3]; +NADH + SN23862,80.4%
same,reductive activation by bacterial nitroreductase enzymes,[4],reductively activated by bacterial nitroreductase enzymes
same,CT10 ratio (air/N2),"UV4 cells; UV4 cells, aerobic CT10/hypoxic CT10",58
same,CT10 (UV4),"UV4 cells; air, concentration x time to reduce UV4 cell survival to 10% of control",2925 μM-h
same,hypoxia-selective cytotoxicity,UV4 cells; conclusion in words,hypoxia-selective cytotoxin
same,IC50,UV4,109 µM
same,% SURVIVAL,V79 cells [5]; +50 μM SN23862,110%
same,% SURVIVAL,V79 cells [5]; +BA (7.45 μg/ml) + 50 μM SN23862,110%
same,% SURVIVAL,V79 cells [5]; +BA (7.45 μg/ml) + SN23862 + 500 μM NADH,6.0%
same,% SURVIVAL,V79 cells [5]; +NADH + SN23862,115%
same,% DRUG REDUCTION,[6]; +50 μM SN23862,< 1.0%
same,% DRUG REDUCTION,[6]; +CG + 50 μM SN23862,< 1.0%
same,% DRUG REDUCTION,[6]; +CG + SN23862 + 500 μM NADH,> 99%
same,% DRUG REDUCTION,[6]; +NADH + SN23862,< 1.0%
same,drug toxicity at this extent of sensitisation,"AA8 cells; at C1.6, hypoxic AA8 cells, FIG. 1",absence of drug toxicity
same,Radiosensitisation of hypoxic cells,"AA8 cells; hypoxic AA8 cells, FIG. 1",Radiosensitisation of hypoxic cells was observed
same,C1.6 (concentration for an enhancement ratio of 1.6),"AA8 cells; hypoxic, 10% survival, cobalt 60, 2.2 Gy/min, 37° C, drug 30 min before irradiation",approximately 100 μM
same,% SURVIVAL MAWI Cells,MAWI Cells; +50 μM SN23862,90.9%
same,% SURVIVAL MAWI Cells,MAWI Cells; +CG (81 μg/ml) + 50 μM SN23862,94.6%
same,% SURVIVAL MAWI Cells,MAWI Cells; [10],0.014%
same,% SURVIVAL MAWI Cells,MAWI Cells; +NADH + SN23862,93.1%
same,% DRUG REDUCTION,E. coli nitroreductase; +50 μM SN23862,< 1.0%
same,% DRUG REDUCTION,E. coli nitroreductase; +NADH + SN23862,< 1.0%
same,% DRUG REDUCTION,E. coli nitroreductase; +NR + 50 μM SN23862,< 1.0%
same,% DRUG REDUCTION,E. coli nitroreductase; +NR + SN23862 + 500 μM NADH,95%
same,IC50,AA8,468 µM
same,% DRUG REDUCTION,[7]; +50 μM SN23862,< 1.0%
same,% DRUG REDUCTION,[7]; +BA + 50 μM SN23862,< 1.0%
same,% DRUG REDUCTION,[7]; +BA + SN23862 + 500 μM NADH,> 95%
same,% DRUG REDUCTION,[7]; +NADH + SN23862,< 1.0%
same,% SURVIVAL,V79 cells [8]; +50 μM SN23862,100%
same,% SURVIVAL,V79 cells [8]; +NADH + SN23862,100%
same,% SURVIVAL,V79 cells [8]; +NR (2 μg/ml) + 50 μM SN23862,99%
same,% SURVIVAL,V79 cells [8]; +NR (2 μg/ml) + SN23862 + 500 μM NADH,0.007%
same,HF (NR-2),UV4 cell line,73.5
"NC(=O)C1=CN([C@@H]2O[C@H](COP(=O)(O)OP(=O)(O)OC[C@H]3O[C@@H](n4cnc5c(N)ncnc54)[C@H](O)[C@@H]3O)[C@@H](O)[C@H]2O)C=CC1 [NADH, reference compound]",% SURVIVAL V79 Cells,V79 cells [3]; +500 μM NADH alone,94.6%
same,% SURVIVAL,V79 cells [9],100%
same,% SURVIVAL,V79 cells [5]; +500 μM NADH alone,120%
same,% SURVIVAL MAWI Cells,MAWI Cells; +500 μM NADH alone,104.6%
